Assay results taken from US20120277211A1, “METHODS AND COMPOSITIONS FOR THE TREATMENT OF PSYCHOTIC DISORDERS THROUGH THE IDENTIFICATION OF THE SULT4A1-1 HAPLOTYPE” (priority 2009, published 2012).
Read-outs that look alike come from different tables or passages of the source. Marks after values point to notes of the source that are not given here.

Columns and labels:
[1] = system: Caucasian schizophrenia patients; assay: CATIE: hospitalization due to exacerbation of psychosis by SULT4A1-1 status; type: in vivo, human
Excerpt: To assess if SULT4A1-1 status impacts the risk of hospitalization in Caucasians, the inventors assigned SULT4A1-1 status to each CATIE subject and evaluated hospitalization events due to exacerbation of psychosis. For this analysis, the inventors assigned a dichotomous value (positive or negative) for hospitalization status to subjects in each phase of the trial based on only the first hospitalization event for a given patient in that phase. Patients participating in Phases 1, 2, and/or 3 were included in the totals for the appropriate drug.
A Kaplan-Meier survival analysis was performed to determine whether there was a difference between the survival (hospitalization) rates for the SULT4A1-1 negative and SULT4A1-1 positive patient populations treated with each of the atypical antipsychotics. Survival plots model the fraction of the population that survived (i.e., no hospitalization event) as a function of time.

[2] = system: Caucasian schizophrenia patients; assay: CATIE Phase I: change in total PANSS (LOCF) by SULT4A1-1 haplotype status, Caucasians; type: in vivo, human; details: for Percent change from baseline PANSS scores, mean (standard deviation): Phase I; for Percent change from baseline PANSS scores, mean (standard deviation) / Number of individuals with change in total PANSS ≦−20% (responders) / Number of individuals with change in total PANSS ≧−20% (non-responders) / Responders: LOCF; for Number of individuals with change in total PANSS ≦−20% (responders) / Number of individuals with change in total PANSS ≧−20% (non-responders) / Responders: CATIE Caucasians; for Responders: change in PANSS ≦−20%
Excerpt: There are several different metrics for quantifying response in clinical trials of antipsychotic medications. The most commonly used psychometric instrument is the Positive and Negative Syndrome Scale (PANSS), a 30-item semi-quantitative instrument scored by clinical professionals (Kay et al., 1987). The greater the decrease in PANSS score, the better the clinical response. The most direct measure of clinical response is absolute change in PANSS score. In addition to absolute change, the improvement is often reported as a percentage change from baseline PANSS score.
A decrease of at least 20% in total PANSS is one commonly used threshold for response (Leucht et al., 2009).
The design of the CATIE study has been described in detail by others (Lieberman et al., 2005; Stroup et al., 2003). […] A total of 738 subjects consented to provide DNA for genetic study. […] Retrospective genetic analyses, judged to be exempt from human studies requirements by an IRB, were conducted in the current study.
All tested patients were studied using well established clinical endpoints comparing baseline, intermediate, and last observation carried forward (LOCF) for the PANSS scores using CATIE data. LOCF analysis is a commonly used clinical endpoint for clinical trials for neuropsychiatric drugs, with changes in PANSS scores of between negative 20% and negative 30% used as typical endpoints to indicate clinically significant response (Leucht et al., 2009). To remove time on drug as a variable for the CATIE trial, analysis was limited to only those patients who were randomized to a different drug following the initial washout period (drug switchers).
The CATIE clinical data set included baseline PANSS scores based on clinical assessments prior to initiation of the assigned therapy, but following the washout period for any patients previously on antipsychotic medication. Follow up PANSS data for the CATIE trial were collected at each visit as described in detail by others (Stroup et al., 2003).
Since follow-up on subjects was not done at uniform time intervals, analysis was done using the last observation for each patient in treatment Phase I of the trial as the measure of response (last observation carried forward, LOCF). Main effect and interaction terms between the SULT4A1-1 haplotype and drug therapy were included in the linear model. A pre-determined set of contrasts for differences in percent change PANSS by haplotype within each drug therapy (three comparisons) and by drug therapy within each haplotype (six comparisons) were evaluated, with adjustment for multiple-comparisons using the step-up false-discovery rate (FDR) controlling procedure (Benjamini and Hochberg, 1995). A sub-analysis omitting those patients who were randomized to the same antipsychotic drug therapy was also conducted.

[3] = system: Caucasian schizophrenia patients; assay: CATIE: time to discontinuation for all causes by SULT4A1-1 status; type: in vivo, human
Excerpt: The primary endpoint for the CATIE study was time to discontinuation for all causes (Lieberman et al., 2005). Thus the inventors evaluated the effect of SULT41-1 status on this important parameter.

[4] = system: unsegmented patient populations; details: cited from earlier work
schizophrenia patients [5] = assay: CATIE: months of successful treatment measured by the CGI scale (TMSUCC1); type: in vivo, human
Excerpt: The CATIE clinical data set included Clinical Global Impression (CGI) Scale, an observer-provided assessment of the psychiatric health of the patient (Stroup et al., 2003; Guy 1976). Patients are rated with the CGI Scale from 1 to 7, with higher scores indicating greater severity of illness. The CATIE study provided a response variable that measured the time (in months) of successful treatment as measured by the CGI scale (“TMSUCC1” in the CATIE data).

schizophrenia patients [6] = details: Phase II; for Responders: decrease PANSS ≧20%, LOCF
[7] = system: African American schizophrenia patients; assay: CATIE: change in total PANSS (LOCF) by SULT4A1-1 haplotype status, African Americans; type: in vivo, human; details: for Number of individuals with change in total PANSS ≦−20% (responders) / Number of individuals with change in total PANSS ≧−20% (non-responders): LOCF
Description: The design of the CATIE study has been described in detail by others (Lieberman et al., 2005; Stroup et al., 2003). […] A total of 738 subjects consented to provide DNA for genetic study. […] Retrospective genetic analyses, judged to be exempt from human studies requirements by an IRB, were conducted in the current study. All tested patients were studied using well established clinical endpoints comparing baseline, intermediate, and last observation carried forward (LOCF) for the PANSS scores using CATIE data. […] To remove time on drug as a variable for the CATIE trial, analysis was limited to only those patients who were randomized to a different drug following the initial washout period (drug switchers).

[8] = comparator = labelled drug in SULT4A1-1+ patients
[9] = complete sample, SULT4A1-1+, labelled drug vs Risperidone
[10] = complete sample, within drug, SULT4A1-1+ vs SULT4A1-1−
[11] = randomized to a different medication, SULT4A1-1+, labelled drug vs Risperidone
[12] = randomized to a different medication, within drug, SULT4A1-1+ vs SULT4A1-1−

OCCOCCN1CCN(C2=Nc3ccccc3Sc3ccccc32)CC1 [Quetiapine]
HOSP, number of patients hospitalized ([1]; SULT4A1-1 negative): 24 | HOSP, rate of hospitalization ([1]; SULT4A1-1 negative): 19.5% | HOSP, number of patients hospitalized ([1]; SULT4A1-1 positive): 1 | HOSP, rate of hospitalization ([1]; SULT4A1-1 positive): 2.9% | HOSP, rate of hospitalization ([1]; Unsegmented): 15.9% | HOSP, number of patients hospitalized ([1]; Unsegmented, Phases 1, 2 and/or 3, first event): 25 | Kaplan-Meier: difference between survival (no hospitalization) rates of SULT4A1-1 negative and positive patients ([1]; per drug): significant difference | Mean difference in total PANSS score between olanzapine and labelled drug, CATIE SULT4A1-1+ ([2]; SULT4A1-1+): −12.9 | Percent change from baseline PANSS scores, mean (standard deviation) ([2]; SULT4A1-1+, complete sample): −4.52 (17.6) % | Percent change from baseline PANSS scores, mean (standard deviation) ([2]; SULT4A1-1+, patients randomized to a different medication): −6.44 (19.0) % | DELTA PANSS % (mean change in PANSS score from baseline to LOCF) ([2]; SULT4A1-1 negative): 0*** % | Number of individuals with change in total PANSS ≦−20% (responders) ([2]; SULT4A1-1 negative): 13 | Number of individuals with change in total PANSS ≧−20% (non-responders) ([2]; SULT4A1-1 negative): 50 | Responders ([2]; SULT4A1-1 negative): 20.6%** | DELTA PANSS % (mean change in PANSS score from baseline to LOCF) ([2]; SULT4A1-1 positive): −9** % | Number of individuals with change in total PANSS ≧−20% (non-responders) ([2]; SULT4A1-1 positive): 11 | Number of individuals with change in total PANSS ≦−20% (responders) ([2]; SULT4A1-1 positive, randomized to a different drug): 7 | Responders ([2]; SULT4A1-1 positive): 38.8% | Mean difference in total PANSS score between olanzapine and labelled drug, CATIE SULT4A1-1− ([2]; SULT4A1-1−): −3.8 | Percent change from baseline PANSS scores, mean (standard deviation) ([2]; SULT4A1-1−, complete sample): 0.84 (26.5) % | Percent change from baseline PANSS scores, mean (standard deviation) ([2]; SULT4A1-1−, patients randomized to a different medication): 0.4 (26.7) % | Mean difference in total PANSS score between olanzapine and labelled drug, CATIE unsegmented ([2]; Unsegmented): −6.2 | Effect size: olanzapine SULT4A1-1+ vs comparator group [2, 8]: 0.75 | Mean difference (95% CI) in delta PANSS: olanzapine SULT4A1-1+ minus comparator group [2, 8]: −14.9 (−28.3 to −1.5) | Difference in percent change in PANSS score (first group minus second) [2, 9]: −1.0% | Difference in percent change in PANSS score, corrected for age, age of onset and sex [2, 9]: −0.54% | Difference in percent change in PANSS score (first group minus second) [2, 10]: −5.4% | Difference in percent change in PANSS score, corrected for age, age of onset and sex [2, 10]: −2.65% | Effect Size attributable to SULT4A1-1 status in CATIE ([2]; olanzapine-treated SULT4A1-1 positive versus labelled drug-treated SULT4A1-1 positive): −0.75^b | Difference in percent change in PANSS score (first group minus second) [2, 11]: −4.6% | Difference in percent change in PANSS score, corrected for age, age of onset and sex [2, 11]: −3.33% | Difference in percent change in PANSS score (first group minus second) [2, 12]: −6.8% | Difference in percent change in PANSS score, corrected for age, age of onset and sex [2, 12]: −2.91% | Time to discontinuation, mean ([3]; SULT4A1-1 negative): 8.6*** Months | Time to discontinuation, mean ([3]; SULT4A1-1 positive): 10.3 Months | Effect Size vs. FGA ([4]; first generation antipsychotics, Davis et al. (2003)): 0.01 | Effect Size vs. Placebo ([4]; meta-analysis, Leucht et al. (2009), negative = greater reduction in PANSS): −0.42 | Mean difference in total PANSS score between olanzapine and labelled drug, Meta-analysis ([4]; unsegmented populations, Leucht et al. (2009)): −3.7 | Length of successful treatment (CGI Months), Mean (schizophrenia patients [5]; SULT4A1-1 negative): 4.22 Months | Length of successful treatment (CGI Months), Mean (schizophrenia patients [5]; SULT4A1-1 positive): 5.96^c Months | Length of successful treatment (CGI Months), Mean (schizophrenia patients [5]; Unsegmented): 4.65 Months | % Responders (schizophrenia patients [6]; SULT4A1-1 Negative): 9.0% | Nonresponders (schizophrenia patients [6]; SULT4A1-1 Negative): 10 | Responders (schizophrenia patients [6]; SULT4A1-1 Negative): 1 | % Responders (schizophrenia patients [6]; SULT4A1-1 Positive): 0% | Nonresponders (schizophrenia patients [6]; SULT4A1-1 Positive): 1 | Responders (schizophrenia patients [6]; SULT4A1-1 Positive): 0 | Responders ([7]; SULT4A1-1 negative): 26.5% | Number of individuals with change in total PANSS ≦−20% (responders) ([7]; SULT4A1-1 negative): 9 | Number of individuals with change in total PANSS ≧−20% (non-responders) ([7]; SULT4A1-1 negative): 25 | Responders ([7]; SULT4A1-1 positive): 33.3% | Number of individuals with change in total PANSS ≦−20% (responders) ([7]; SULT4A1-1 positive): 2 | Number of individuals with change in total PANSS ≧−20% (non-responders) ([7]; SULT4A1-1 positive): 4
